Measurements: ChEMBL document CHEMBL3763146 (J Med Chem, 2016)

How the values were obtained:
[1] = Induction of phospholidosis in human HepG2 cells incubated overnight by […] in presence of fluorescent labeled phospholipid probe NBD-PE; format: cell-based; conditions: read-out: A50
[2] = molecular target: Sodium-dependent serotonin transporter (Homo sapiens, UniProt P31645); assay: Inhibition of human SERT expressed in HEK293 cells preincubated for 30 mins followed by fluorescent substrate addition measured after 30 mins by plate reader analysis; format: cell-based
[3] = Distribution coefficient, logD of the compound at pH 7.4; format: physicochemical; conditions: octanol/water
[4] = molecular target: Sodium channel protein type 2 subunit alpha (Homo sapiens, UniProt Q99250); assay: Inhibition of human Nav1.2 channel expressed in Xenopus oocytes by two-intracellular microelectrode voltage clamp method; format: cell-based
Sequence of Sodium channel protein type 2 subunit alpha (Q99250 whole entry, looked up): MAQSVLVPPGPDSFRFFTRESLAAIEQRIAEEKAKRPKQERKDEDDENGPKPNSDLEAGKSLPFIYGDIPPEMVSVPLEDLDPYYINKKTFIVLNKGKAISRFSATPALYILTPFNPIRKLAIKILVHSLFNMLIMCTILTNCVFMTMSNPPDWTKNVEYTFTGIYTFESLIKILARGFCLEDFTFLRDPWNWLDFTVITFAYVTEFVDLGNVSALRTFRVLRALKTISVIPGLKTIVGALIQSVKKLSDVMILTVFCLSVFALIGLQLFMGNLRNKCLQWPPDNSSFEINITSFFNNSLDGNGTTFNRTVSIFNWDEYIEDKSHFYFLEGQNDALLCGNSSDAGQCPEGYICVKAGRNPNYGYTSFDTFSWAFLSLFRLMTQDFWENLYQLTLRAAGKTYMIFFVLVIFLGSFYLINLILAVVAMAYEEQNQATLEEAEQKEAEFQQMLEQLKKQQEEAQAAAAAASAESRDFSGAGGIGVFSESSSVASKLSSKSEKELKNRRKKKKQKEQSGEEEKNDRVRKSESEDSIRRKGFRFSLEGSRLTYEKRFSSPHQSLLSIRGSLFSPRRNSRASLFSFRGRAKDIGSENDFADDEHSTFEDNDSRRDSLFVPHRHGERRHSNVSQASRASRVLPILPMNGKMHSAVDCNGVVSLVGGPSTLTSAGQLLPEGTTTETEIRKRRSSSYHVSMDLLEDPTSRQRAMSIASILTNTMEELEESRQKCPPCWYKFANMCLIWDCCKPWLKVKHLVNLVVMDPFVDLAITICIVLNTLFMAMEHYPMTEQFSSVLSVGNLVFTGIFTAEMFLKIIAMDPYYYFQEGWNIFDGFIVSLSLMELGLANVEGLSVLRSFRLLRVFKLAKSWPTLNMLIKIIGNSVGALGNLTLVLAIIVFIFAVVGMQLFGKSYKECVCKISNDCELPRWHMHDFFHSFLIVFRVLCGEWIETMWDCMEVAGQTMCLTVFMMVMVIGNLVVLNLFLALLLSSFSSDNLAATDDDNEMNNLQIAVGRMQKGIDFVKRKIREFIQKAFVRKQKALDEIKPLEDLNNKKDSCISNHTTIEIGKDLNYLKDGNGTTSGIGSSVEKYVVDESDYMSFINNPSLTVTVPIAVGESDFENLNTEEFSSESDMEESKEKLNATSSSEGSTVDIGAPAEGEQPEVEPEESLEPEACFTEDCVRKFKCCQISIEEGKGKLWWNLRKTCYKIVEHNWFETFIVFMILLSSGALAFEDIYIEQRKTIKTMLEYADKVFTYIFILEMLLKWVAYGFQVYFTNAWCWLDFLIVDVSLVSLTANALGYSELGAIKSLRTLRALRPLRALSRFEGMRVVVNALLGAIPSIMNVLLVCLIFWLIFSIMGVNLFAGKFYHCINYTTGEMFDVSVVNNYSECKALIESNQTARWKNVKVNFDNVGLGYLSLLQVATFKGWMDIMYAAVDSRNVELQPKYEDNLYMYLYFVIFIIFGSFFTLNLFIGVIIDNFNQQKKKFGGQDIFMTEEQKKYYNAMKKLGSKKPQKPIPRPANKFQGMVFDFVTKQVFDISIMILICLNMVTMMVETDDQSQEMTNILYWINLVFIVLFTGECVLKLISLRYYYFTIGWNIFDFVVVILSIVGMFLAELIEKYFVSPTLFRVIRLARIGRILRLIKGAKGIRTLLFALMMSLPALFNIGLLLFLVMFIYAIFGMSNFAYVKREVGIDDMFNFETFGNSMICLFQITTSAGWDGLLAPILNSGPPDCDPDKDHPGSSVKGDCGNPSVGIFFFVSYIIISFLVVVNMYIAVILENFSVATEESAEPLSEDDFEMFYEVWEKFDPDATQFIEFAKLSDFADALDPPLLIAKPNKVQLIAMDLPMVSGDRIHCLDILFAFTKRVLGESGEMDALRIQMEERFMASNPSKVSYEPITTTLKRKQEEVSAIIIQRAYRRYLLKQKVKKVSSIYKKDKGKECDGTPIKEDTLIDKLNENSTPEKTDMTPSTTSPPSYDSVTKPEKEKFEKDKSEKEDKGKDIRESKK

[5] = molecular target: Voltage-dependent L-type calcium channel subunit alpha-1C (Homo sapiens, UniProt Q13936); assay: Displacement of [3H]-diltiazem from human Cav1.2 channel
Sequence of Voltage-dependent L-type calcium channel subunit alpha-1C (Q13936 whole entry): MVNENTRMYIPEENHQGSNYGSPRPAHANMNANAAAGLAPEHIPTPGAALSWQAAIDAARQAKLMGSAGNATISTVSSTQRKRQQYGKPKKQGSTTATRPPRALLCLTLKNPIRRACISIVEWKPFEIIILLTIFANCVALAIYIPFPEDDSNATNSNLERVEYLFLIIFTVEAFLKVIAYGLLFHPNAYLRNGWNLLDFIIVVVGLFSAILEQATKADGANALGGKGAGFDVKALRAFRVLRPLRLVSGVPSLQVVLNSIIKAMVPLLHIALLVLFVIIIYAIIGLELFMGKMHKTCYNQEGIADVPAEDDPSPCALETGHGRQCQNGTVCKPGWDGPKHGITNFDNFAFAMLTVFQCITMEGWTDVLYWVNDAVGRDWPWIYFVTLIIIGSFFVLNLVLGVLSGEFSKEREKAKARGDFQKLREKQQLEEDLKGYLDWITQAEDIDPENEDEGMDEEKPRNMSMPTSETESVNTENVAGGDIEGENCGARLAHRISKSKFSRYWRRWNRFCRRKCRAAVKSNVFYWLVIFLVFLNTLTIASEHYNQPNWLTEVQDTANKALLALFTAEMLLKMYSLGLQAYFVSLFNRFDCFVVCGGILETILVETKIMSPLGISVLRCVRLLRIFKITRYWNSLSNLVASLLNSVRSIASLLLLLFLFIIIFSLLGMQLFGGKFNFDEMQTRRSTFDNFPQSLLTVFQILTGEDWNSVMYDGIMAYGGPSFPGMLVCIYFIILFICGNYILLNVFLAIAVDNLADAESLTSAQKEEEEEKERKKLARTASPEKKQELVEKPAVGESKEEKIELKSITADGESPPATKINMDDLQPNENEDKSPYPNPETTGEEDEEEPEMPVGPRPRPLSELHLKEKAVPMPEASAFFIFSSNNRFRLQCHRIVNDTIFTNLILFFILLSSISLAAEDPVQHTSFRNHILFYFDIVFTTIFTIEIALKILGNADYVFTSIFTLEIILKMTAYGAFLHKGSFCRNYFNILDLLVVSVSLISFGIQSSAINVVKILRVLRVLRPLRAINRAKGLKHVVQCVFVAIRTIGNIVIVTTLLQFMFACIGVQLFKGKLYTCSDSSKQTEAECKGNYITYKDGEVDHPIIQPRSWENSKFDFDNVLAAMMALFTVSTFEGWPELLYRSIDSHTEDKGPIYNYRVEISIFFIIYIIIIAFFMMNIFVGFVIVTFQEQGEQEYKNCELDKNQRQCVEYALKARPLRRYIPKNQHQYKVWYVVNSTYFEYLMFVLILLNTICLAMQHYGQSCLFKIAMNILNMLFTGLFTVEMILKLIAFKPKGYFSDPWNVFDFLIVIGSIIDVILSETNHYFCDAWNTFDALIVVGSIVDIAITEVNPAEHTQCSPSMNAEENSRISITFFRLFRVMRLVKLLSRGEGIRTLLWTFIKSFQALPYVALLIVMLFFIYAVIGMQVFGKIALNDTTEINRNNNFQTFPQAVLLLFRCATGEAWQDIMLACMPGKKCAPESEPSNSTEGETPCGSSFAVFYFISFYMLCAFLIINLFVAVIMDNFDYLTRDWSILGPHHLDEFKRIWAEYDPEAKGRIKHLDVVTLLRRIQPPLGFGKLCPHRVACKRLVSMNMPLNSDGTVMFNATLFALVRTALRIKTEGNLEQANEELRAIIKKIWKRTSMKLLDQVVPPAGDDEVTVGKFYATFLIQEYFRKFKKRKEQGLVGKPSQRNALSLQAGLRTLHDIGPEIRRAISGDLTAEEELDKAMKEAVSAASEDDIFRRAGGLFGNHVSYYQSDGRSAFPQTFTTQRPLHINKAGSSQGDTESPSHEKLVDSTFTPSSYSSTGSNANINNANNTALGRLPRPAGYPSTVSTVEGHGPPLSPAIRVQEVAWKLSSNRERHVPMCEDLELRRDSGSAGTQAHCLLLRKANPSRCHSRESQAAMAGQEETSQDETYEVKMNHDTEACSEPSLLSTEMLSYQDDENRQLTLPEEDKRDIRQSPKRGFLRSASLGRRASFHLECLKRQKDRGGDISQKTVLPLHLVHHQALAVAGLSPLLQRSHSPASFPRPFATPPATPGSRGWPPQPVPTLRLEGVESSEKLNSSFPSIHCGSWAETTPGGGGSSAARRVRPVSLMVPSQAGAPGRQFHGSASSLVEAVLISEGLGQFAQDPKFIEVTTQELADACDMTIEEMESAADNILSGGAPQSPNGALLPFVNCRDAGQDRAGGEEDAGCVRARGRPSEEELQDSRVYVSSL

Cytochrome P450 3A4 = Cytochrome P450 3A4 (Homo sapiens, UniProt P08684); assay: Inhibition of CYP3A4 in human liver microsomes assessed as testosterone 6beta-hydroxylation; format: ADME
Cytochrome P450 2D6 = Cytochrome P450 2D6 (Homo sapiens, UniProt P10635); assay: Inhibition of CYP2D6 in human liver microsomes assessed as dextraomethorphan O-demethylation; format: ADME
Cytochrome P450 2C9 = Cytochrome P450 2C9 (Homo sapiens, UniProt P11712); assay: Inhibition of CYP2C9 in human liver microsomes assessed as diclofenac alpha'-hydroxylation; format: ADME
[6] = molecular target: T1, Beta-3 adrenergic receptor (Homo sapiens, UniProt P13945); assay: Agonist activity at human beta3 adrenergic receptor expressed in CHO cells assessed as accumulation of cAMP after 30 mins by TR-FRET assay relative to (R)-(-)-isoproterenol; format: functional, cell-based
[7] = molecular target: T1, Beta-3 adrenergic receptor; assay: Agonist activity at human beta3 adrenergic receptor expressed in CHO cells assessed as accumulation of cAMP after 30 mins by TR-FRET assay; format: functional, cell-based
[8] = molecular target: Beta-2 adrenergic receptor (Homo sapiens, UniProt P07550)
Sequence of Beta-2 adrenergic receptor (P07550 whole entry): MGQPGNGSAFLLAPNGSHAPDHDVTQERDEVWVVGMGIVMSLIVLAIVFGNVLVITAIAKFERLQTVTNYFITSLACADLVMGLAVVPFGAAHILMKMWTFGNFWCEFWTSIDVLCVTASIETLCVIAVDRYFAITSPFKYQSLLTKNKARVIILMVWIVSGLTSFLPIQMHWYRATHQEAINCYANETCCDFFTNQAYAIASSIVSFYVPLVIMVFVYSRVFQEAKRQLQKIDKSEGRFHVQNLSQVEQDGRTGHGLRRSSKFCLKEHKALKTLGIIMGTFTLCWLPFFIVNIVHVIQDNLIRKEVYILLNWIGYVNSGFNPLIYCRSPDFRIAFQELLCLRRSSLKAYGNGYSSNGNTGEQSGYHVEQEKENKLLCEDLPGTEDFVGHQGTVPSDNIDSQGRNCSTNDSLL
Description: Displacement of [125]I-cyanopindolol from human recombinant beta2 adrenergic receptor after 1 hr by scintillation counting method

[9] = molecular target: Beta-1 adrenergic receptor (Homo sapiens, UniProt P08588)
Sequence of Beta-1 adrenergic receptor (P08588 whole entry): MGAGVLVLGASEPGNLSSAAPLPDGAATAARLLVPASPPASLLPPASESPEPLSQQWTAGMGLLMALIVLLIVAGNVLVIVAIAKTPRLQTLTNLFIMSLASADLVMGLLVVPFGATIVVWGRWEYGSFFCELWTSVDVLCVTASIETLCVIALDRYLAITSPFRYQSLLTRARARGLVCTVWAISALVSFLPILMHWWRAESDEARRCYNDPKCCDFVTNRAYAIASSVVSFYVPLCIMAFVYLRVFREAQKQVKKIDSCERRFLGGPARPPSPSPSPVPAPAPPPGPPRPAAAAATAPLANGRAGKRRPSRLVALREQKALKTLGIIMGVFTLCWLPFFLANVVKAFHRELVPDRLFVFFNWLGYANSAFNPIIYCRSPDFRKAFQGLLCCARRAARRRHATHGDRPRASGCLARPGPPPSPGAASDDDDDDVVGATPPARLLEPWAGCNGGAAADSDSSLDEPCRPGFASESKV
Description: Displacement of [125]I-cyanopindolol from recombinant human beta1 adrenergic receptor after 1 hr by scintillation counting method

[10] = molecular target: Voltage-gated inwardly rectifying potassium channel KCNH2 (Homo sapiens, UniProt Q12809); assay: Binding affinity to human ERG channel
[11] = molecular target: Beta-3 adrenergic receptor (Canis lupus familiaris, UniProt O02662); assay: Agonist activity at dog beta3 adrenergic receptor expressed in CHO cells assessed as accumulation of cAMP after 30 mins by TR-FRET assay; format: functional, cell-based
[12] = molecular target: T1, Beta-3 adrenergic receptor; assay: Agonist activity at human adrenergic beta3 receptor expressed in CHO cells assessed as accumulation of cAMP after 30 mins by TR-FRET assay in presence of 40% serum relative to (R)-(-)-isoproterenol; format: functional, cell-based
[13] = molecular target: Beta-3 adrenergic receptor (Rattus norvegicus) (UniProt P26255); assay: Agonist activity at rat beta3 adrenergic receptor expressed in CHO cells assessed as accumulation of cAMP after 30 mins by TR-FRET assay in presence of 40% serum relative to (R)-(-)-isoproterenol; format: functional, cell-based
[14] = Plasma clearance in rat at 1 mg/kg, iv or 2 mg/kg, po; format: ADME, organism-based
[15] = Plasma clearance in dog at 0.5 mg/kg, iv or 2 mg/kg, po; format: ADME, organism-based, Canis lupus familiaris
[16] = Stability in human plasma assessed as parent compound remaining at 24 hrs by LC-MS analysis; format: ADME, cell-free; conditions: read-out: Stability
[17] = Plasma clearance in rhesus monkey at 0.5 mg/kg, iv or 2 mg/kg, po; format: ADME, organism-based, Macaca mulatta
Rattus norvegicus [18] = assay: Unbound clearance in rat at 1 mg/kg, iv or 2 mg/kg, po; format: ADME, organism-based; conditions: in vivo
Canis familiaris [19] = assay: Unbound clearance in dog at 0.5 mg/kg, iv or 2 mg/kg, po; format: ADME, organism-based, Canis lupus familiaris; conditions: in vivo
Rhesus monkey [20] = assay: Unbound clearance in rhesus monkey at 0.5 mg/kg, iv or 2 mg/kg, po; format: ADME, organism-based, Macaca mulatta; conditions: in vivo
[21] = Half life in rat at 1 mg/kg, iv or 2 mg/kg, po; format: ADME, organism-based; conditions: in vivo
[22] = Half life in dog at 0.5 mg/kg, iv or 2 mg/kg, po; format: ADME, organism-based, Canis lupus familiaris; conditions: in vivo
[23] = Half life in rhesus monkey at 0.5 mg/kg, iv or 2 mg/kg, po; format: ADME, organism-based, Macaca mulatta; conditions: in vivo
Rattus norvegicus [24] = assay: Dose normalized total AUC in rat at 2 mg/kg, po; format: ADME, organism-based; conditions: in vivo
Canis familiaris [25] = assay: Dose normalized total AUC in dog at 2 mg/kg, po; format: ADME, organism-based, Canis lupus familiaris; conditions: in vivo
Rhesus monkey [26] = assay: Dose normalized total AUC in rhesus monkey at 2 mg/kg, po; format: ADME, organism-based, Macaca mulatta; conditions: in vivo
Rattus norvegicus [27] = assay: Dose normalized fAUC in rat at 2 mg/kg, po; format: ADME, organism-based; conditions: in vivo
Canis familiaris [28] = assay: Dose normalized fAUC in dog at 2 mg/kg, po; format: ADME, organism-based, Canis lupus familiaris; conditions: in vivo
Rhesus monkey [29] = assay: Dose normalized fAUC in rhesus monkey at 2 mg/kg, po; format: ADME, organism-based, Macaca mulatta; conditions: in vivo
[30] = Oral bioavailability in rat at 2 mg/kg; format: ADME, organism-based; conditions: in vivo
[31] = Oral bioavailability in dog at 2 mg/kg; format: ADME, organism-based, Canis lupus familiaris; conditions: in vivo
[32] = Oral bioavailability in rhesus monkey at 2 mg/kg; format: ADME, organism-based, Macaca mulatta; conditions: in vivo
[33] = Fraction unbound in rat at 1 mg/kg, iv or 2 mg/kg, po; format: ADME, organism-based; conditions: in vivo
[34] = Fraction unbound in dog at 0.5 mg/kg, iv or 2 mg/kg, po; format: ADME, organism-based, Canis lupus familiaris; conditions: in vivo
[35] = Fraction unbound in rhesus monkey at 0.5 mg/kg, iv or 2 mg/kg, po; format: ADME, organism-based, Macaca mulatta; conditions: in vivo
[36] = Intrinsic clearance in rat liver microsomes; format: ADME; conditions: read-out: CLH
[37] = Intrinsic clearance in dog liver microsomes; format: ADME, Canis lupus familiaris; conditions: read-out: CLH
[38] = Intrinsic clearance in human liver microsomes; format: ADME; conditions: read-out: CLH
[39] = Intrinsic clearance in rhesus monkey liver microsomes; format: ADME, Macaca mulatta; conditions: read-out: CLH
[40] = Stability in rat plasma assessed as parent compound remaining at 24 hrs by LC-MS analysis; format: ADME, cell-free; conditions: read-out: Stability
[41] = Stability in dog plasma assessed as parent compound remaining at 24 hrs by LC-MS analysis; format: ADME, cell-free, Canis lupus familiaris; conditions: read-out: Stability
[42] = Stability in rhesus monkey plasma assessed as parent compound remaining at 24 hrs by LC-MS analysis; format: ADME, cell-free, Macaca mulatta; conditions: read-out: Stability
[43] = molecular target: T2, Beta-3 adrenergic receptor (Rattus norvegicus, UniProt P26255); assay: Agonist activity at rat beta3 adrenergic receptor expressed in CHO cells assessed as accumulation of cAMP after 30 mins by TR-FRET assay; format: functional, cell-based
[44] = molecular target: Beta-3 adrenergic receptor (Rattus norvegicus) (UniProt P26255); assay: Agonist activity at rat beta3 adrenergic receptor expressed in CHO cells assessed as accumulation of cAMP after 30 mins by TR-FRET assay relative to (R)-(-)-isoproterenol; format: functional, cell-based
[45] = molecular target: Beta-3 adrenergic receptor (Macaca mulatta, UniProt Q28524); assay: Agonist activity at rhesus monkey beta3 adrenergic receptor expressed in CHO cells assessed as accumulation of cAMP after 30 mins by TR-FRET assay; format: functional, cell-based
[46] = molecular target: Beta-3 adrenergic receptor (Macaca mulatta) (UniProt Q28524); assay: Agonist activity at rhesus monkey beta3 adrenergic receptor expressed in CHO cells assessed as accumulation of cAMP after 30 mins by TR-FRET assay relative to (R)-(-)-isoproterenol; format: functional, cell-based
[47] = molecular target: T2, Beta-3 adrenergic receptor; assay: Agonist activity at rat beta3 adrenergic receptor expressed in CHO cells assessed as accumulation of cAMP after 30 mins by TR-FRET assay in presence of 40% serum; format: functional, cell-based
[48] = molecular target: T1, Beta-3 adrenergic receptor; assay: Agonist activity at human adrenergic beta3 receptor expressed in CHO cells assessed as accumulation of cAMP after 30 mins by TR-FRET assay in presence of 40% serum; format: functional, cell-based
Rattus norvegicus [49] = assay: Increase in detrusor muscle relaxation in iv infused Sprague-Dawley rat acetic acid-induced bladder hyperreflexia model assessed as decrease in micturition pressure measured over 30 to 45 mins; format: functional, organism-based
Rattus norvegicus [50] = assay: Increase in detrusor muscle relaxation in iv infused Sprague-Dawley rat acetic acid-induced bladder hyperreflexia model assessed as increase in functional bladder capacity measured over 30 to 45 mins; format: organism-based

SMILES: O=C(Cn1cnc2ccccc2c1=O)Nc1ccc(C[C@@H]2CC[C@H]([C@H](O)c3ccccc3)N2)cc1
- AC50 [1]: 8.6 µM
- IC50 [2]: 0.2 µM
- logD [3]: 2
- IC50 [4]: > 30 µM
- IC50 [5]: 13 µM
- IC50 (Cytochrome P450 3A4): 96 µM
- IC50 (Cytochrome P450 2D6): 31 µM
- IC50 (Cytochrome P450 2C9): > 100 µM
- max activation [6]: 108%
- EC50 [7]: 0.0017 µM
- IC50 [8]: 2.2 µM
- IC50 [9]: > 20 µM

SMILES: O=C(Cn1cnccc1=O)Nc1ccc(C[C@@H]2CC[C@H]([C@H](O)c3ccccc3)N2)cc1
- AC50 [1]: > 100 µM
- IC50 [2]: 0.7 µM
- IC50 [4]: > 30 µM
- IC50 [5]: > 30 µM
- IC50 [10]: > 30 µM
- max activation [6]: 91%
- EC50 [7]: 0.0039 µM
- IC50 [8]: > 20 µM
- IC50 [9]: > 20 µM

SMILES: O=C(Cn1ncccc1=O)Nc1ccc(C[C@@H]2CC[C@H]([C@H](O)c3ccccc3)N2)cc1
- EC50 [11]: 0.047 µM
- max activation [12]: 96%
- max activation [13]: 99%
- AC50 [1]: 67 µM
- IC50 [2]: 4.4 µM
- logD [3]: 1
- IC50 [4]: > 30 µM
- IC50 [5]: > 30 µM
- IC50 (Cytochrome P450 3A4): > 100 µM
- IC50 (Cytochrome P450 2D6): > 100 µM
- IC50 (Cytochrome P450 2C9): > 100 µM
- max activation [6]: 105%
- EC50 [7]: 0.0048 µM
- clearance [14]: 40 mL/min/kg
- clearance [15]: 7.4 mL/min/kg
- remaining at 24 h [16]: 26%
- clearance [17]: 21 mL/min/kg
- CL free (Rattus norvegicus [18]): 148 mL/min/kg
- CL free (Canis familiaris [19]): 15 mL/min/kg
- CL free (Rhesus monkey [20]): 33 mL/min/kg
- half-life [21]: 5 h
- half-life [22]: 8 h
- half-life [23]: 9 h
- AUC/dose (Rattus norvegicus [24]): 66 nM·h/mg/kg
- AUC/dose (Canis familiaris [25]): 1200 nM·h/mg/kg
- AUC/dose (Rhesus monkey [26]): 820 nM·h/mg/kg
- fAUC/dose (Rattus norvegicus [27]): 17 nM·h/mg/kg
- fAUC/dose (Canis familiaris [28]): 612 nM·h/mg/kg
- fAUC/dose (Rhesus monkey [29]): 517 nM·h/mg/kg
- bioavailability [30]: 14%
- bioavailability [31]: 18%
- bioavailability [32]: 46%
- fraction unbound [33]: 0.27
- fraction unbound [34]: 0.51
- fraction unbound [35]: 0.63
- CLint scaled [36]: < 15 mL/min/kg
- CLint scaled [37]: 11 mL/min/kg
- CLint scaled [38]: < 10 mL/min/kg
- CLint scaled [39]: < 10 mL/min/kg
- remaining at 24 h [40]: 95%
- remaining at 24 h [41]: 100%
- remaining at 24 h [42]: 95%
- EC50 [43]: 0.615 µM
- max activation [44]: 79%
- EC50 [45]: 0.0035 µM
- max activation [46]: 91%
- EC50 [47]: 1.06 µM
- EC50 [48]: 0.0059 µM
- Activity (Rattus norvegicus [49]): Dose-dependent effect
- Activity (Rattus norvegicus [50]): Dose-dependent effect
- IC50 [8]: > 20 µM
- IC50 [9]: > 20 µM

SMILES: O=C(Nc1ccc(C[C@@H]2CC[C@H]([C@H](O)c3cccnc3)N2)cc1)[C@@H]1CCc2scnc21
- AC50 [1]: 79 µM
- logD [3]: 1.1
- max activation [6]: 82%
- remaining at 24 h [16]: 1%
- remaining at 24 h [40]: 79%

SMILES: O=C(Nc1ccc(C[C@@H]2CC[C@H]([C@H](O)c3cccnc3)N2)cc1)[C@@H]1CCc2ccnn21
- AC50 [1]: 94 µM
- logD [3]: 0.9
- max activation [6]: 84%
- remaining at 24 h [16]: 0%
- remaining at 24 h [40]: 97%
- remaining at 24 h [41]: 100%
- remaining at 24 h [42]: 87%
